Assay results reported in PMC13403234, “Engineering Cathepsin S Selective Chemical Probes and Antibody−Drug Conjugates through Substrate Profiling with Unnatural Amino Acids” (Journal of Medicinal Chemistry, 2026).
*1 amine or outer side, *2 acyl side, *3 side chain or, on linkers, in order; H or OH if unused. Where a SMILES comes first, the peptide text is derived from it. [ ]: non-standard residue; d: D form. The star is where a group is joined. Dolaproine = CO[C@@H]([C@@H]1CCCN1)[C@@H](C)C(=O)O; Phe(F5) = N[C@@H](Cc1c(F)c(F)c(F)c(F)c1F)C(=O)O; Dil = CC[C@H](C)[C@H](NC)[C@@H](CC(=O)O)OC; PABC = O=C(OCc1ccc(N[*:1])cc1)[*:2]; X1 = C[C@@H](N*)[C@@H](O)c1ccccc1; Cit = NC(=O)NCCC[C@H](N)C(=O)O; NMeV = CN[C@H](C(=O)O)C(C)C; ClZ = O=C(OCc1ccccc1Cl)*

Experiments:
Cathepsin S [1] = biological target: T1, Cathepsin S (Homo sapiens, UniProt P25774); experiment: Fluorogenic ACC substrate hydrolysis kinetics, cathepsin S; assay type: biochemical; design: kcat Cathepsin S: unit not given here; conditions: third-generation substrates, steady-state; for Km: Table S5; for kcat Cathepsin S: Table S6
T1 construct: made in house
T1 sequence (P25774 115-331): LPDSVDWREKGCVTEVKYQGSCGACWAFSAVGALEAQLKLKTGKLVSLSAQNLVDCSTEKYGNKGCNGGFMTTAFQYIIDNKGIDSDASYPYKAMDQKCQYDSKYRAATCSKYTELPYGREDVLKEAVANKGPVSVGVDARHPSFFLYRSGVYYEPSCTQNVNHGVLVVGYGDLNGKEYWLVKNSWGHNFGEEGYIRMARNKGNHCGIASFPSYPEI
Experimental: (§1) All kinetic studies were performed using an fMax fluorescence plate reader (Molecular Devices) in kinetic mode with 96- or 384-well plates. ACC fluorescence was monitored at excitation and emission wavelengths of 355 and 460 nm, respectively. Recombinant human cysteine cathepsins L, V, B, K, and S were expressed and purified as previously described. Prior to use, all cysteine cathepsins were titrated with E64 to normalize enzymatic activity. Assays for cathepsins were conducted in 100 mM sodium acetate buffer containing 10 mM NaCl and 10 mM DTT (pH 5.5). Breast cancer cell lysates (BT-474, MCF-7, MDA-MB-231) were prepared by culturing cells to confluence in the appropriate media, replacing media with PBS, and harvesting the cells using a cell scraper (without trypsin). The cells were pelleted by centrifugation (400 × g, 5 min), resuspended in PBS, and centrifuged again under the same conditions. After removal of the supernatant, the pellet was resuspended in cathepsin assay buffer (excluding DTT) and sonicated. Lysates were then clarified by centrifugation (12,000 × g, 5 min), and the supernatants were collected and stored at −80 °C until use. All enzymatic assays, including HyCoSuL library screening and kinetic analyses of synthetic substrates, inhibitors, probes and prodrugs, were conducted at 37 °C and repeated at least three times. Mean values are reported. Kinetic data were analyzed using GraphPad Prism software (version 10.4.1).
(§2) Peptide substrates for cathepsin S were designed based on P4-P1 specificity profiling and synthesized on Rink amide resin using standard Fmoc solid-phase peptide synthesis protocols. The resin was swollen in dichloromethane (DCM) and deprotected with 20% piperidine in DMF. Fmoc-ACC-OH was coupled twice using HOBt/DIC in DMF and allowed to react overnight. Subsequent Fmoc-protected amino acids were coupled sequentially using HATU and 2,4,6-collidine, with Fmoc deprotection after each step using 20% piperidine in DMF. Following chain assembly, the N-terminus was acetylated using AcOH/HBTU/DIPEA in DMF for 45 min. Peptides were cleaved from the resin using TFA/TIPS/H2O (95:2.5:2.5, v/v/v) for 2 h, precipitated in cold diethyl ether, lyophilized, and purified by preparative HPLC. […] Final compounds were dissolved in DMSO at 20 mM and stored at −80 °C. To evaluate substrate selectivity, each fluorogenic peptide (10 μM) was incubated with recombinant cysteine cathepsins (5 nM) in assay buffer at 37 °C. Fluorescence emission was recorded at 460 nm, and initial cleavage rates were reported as relative fluorescence units per second (RFU/s). For selected substrates, detailed kinetic parameters (k cat, KM, and k cat/KM) were determined as previously described.

Cathepsin B [2] = biological target: T2, Cathepsin B (Homo sapiens, UniProt P07858); experiment: Fluorogenic ACC substrate hydrolysis kinetics, cathepsin B; assay type: biochemical; design: made in house; kcat Cathepsin B: unit not given here; conditions: third-generation substrates, steady-state; for Km: Table S5; for kcat Cathepsin B: Table S6
Experimental: as §1, §2

Cathepsin V [3] = biological target: T3, Cathepsin V (Homo sapiens, UniProt O60911); experiment: Fluorogenic ACC substrate hydrolysis kinetics, cathepsin V; assay type: biochemical; design: kcat Cathepsin V: unit not given here; conditions: third-generation substrates, steady-state; for Km: Table S5; for kcat Cathepsin V: Table S6
T3 construct: made in house
T3 sequence (O60911 114-334): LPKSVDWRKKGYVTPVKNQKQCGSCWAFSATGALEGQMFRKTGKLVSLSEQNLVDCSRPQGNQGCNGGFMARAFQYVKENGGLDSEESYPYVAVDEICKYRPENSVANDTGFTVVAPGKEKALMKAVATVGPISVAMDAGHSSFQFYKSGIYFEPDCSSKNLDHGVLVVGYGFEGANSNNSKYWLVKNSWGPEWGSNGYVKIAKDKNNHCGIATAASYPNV
Experimental: as §1, §2

Cathepsin L [4] = biological target: T4, Cathepsin L (Homo sapiens, UniProt P07711); experiment: Fluorogenic ACC substrate hydrolysis kinetics, cathepsin L; assay type: biochemical; design: kcat Cathepsin L: unit not given here; conditions: third-generation substrates, steady-state; for Km: Table S5; for kcat Cathepsin L: Table S6
T4 construct: made in house
T4 sequence (P07711 114-333): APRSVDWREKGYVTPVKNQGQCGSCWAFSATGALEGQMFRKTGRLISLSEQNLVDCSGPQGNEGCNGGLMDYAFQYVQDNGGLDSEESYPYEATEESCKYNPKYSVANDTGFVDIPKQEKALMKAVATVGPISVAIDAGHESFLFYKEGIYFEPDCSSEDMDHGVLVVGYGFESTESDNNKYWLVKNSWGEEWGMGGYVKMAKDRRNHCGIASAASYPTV
Experimental: as §1, §2

Cathepsin S [5] = biological target: T1, Cathepsin S; experiment: Prodrug cleavage / MMAE release by LC-MS, cathepsin S; assay type: biochemical; conditions: prodrug 50 μM, pH 5.5, 37 °C, 0-120 min
Experimental: Cleavage assays were conducted at 37 °C in 1 mL reaction volumes using acetate buffer composed of 100 mM sodium acetate (pH 5.5), 100 mM NaCl, 1 mM EDTA, and 5 mM DTT. Buffers were prepared at room temperature and equilibrated before use. Prodrugs were initially dissolved in DMSO at a stock concentration of 10 mM, then diluted into the reaction buffer to a final concentration of 50 μM, maintaining a DMSO concentration below 0.5% (v/v). Reactions were initiated by the addition of recombinant cathepsin and carried out in glass LC-MS vials incubated at 37 °C. At specified time points (0, 5, 30, 60, and 120 min), aliquots were taken and directly injected into the LC-MS system without further processing. Quantification of MMAE release was based on absorbance at 220 nm. The area under the MMAE peak was integrated, and the amount of released MMAE was plotted as a function of time. Each time point was measured in triplicate, and results are presented as mean ± standard deviation (SD). A standard curve was prepared using free MMAE at concentrations of 1, 5, 10, 20, and 50 μM to enable accurate quantification of MMAE released from the prodrugs.

[6] = biological target: T5, active cathepsin S in MDA-MB-231 live cells (Homo sapiens, UniProt P25774); experiment: Labeling of active cathepsin S in MDA-MB-231 live cells with Cy5 probes; assay type: cell-based; conditions: inhibitor 25 μM for 2 h, then OG-233 or OG-234 for 24 h
T5 construct: endogenous in cells; host or cells: MDA-MB-231
T5 sequence (P25774 115-331): as the sequence (P25774 115-331) above
Experimental: 50,000 of MDA-MB-231 cells were seeded into 12-well plate and allowed to attach overnight. The next day, OG-233 and OG-234 probes (1 μM final concentration) were added to the cells and incubated for various times (from 0,5 h up to 24 h). Control cells were preincubated with cathepsin S inhibitors (JN1, JN4, JN7) at 25 μM for 2 h, and then incubated with OG-233 or OG-234 probes for 24 h. Next, cells were harvested and prepared for SDS-PAGE analysis as described in the above section. Electrophoresis was run for 25 min (4−12% Bis-Tris Plus 10-well gel, 200 V). Next, proteins were transferred onto the membrane (0.2 μm nitrocellulose membrane, 10 V, 60 min) and Ponceau S was used to verify equal loading and transfer. Membranes were then blocked with 5% BSA in TBS-T buffer for 1 h at RT. Membranes were next incubated anticathepsin S antibody (1:1,000, overnight, 4 °C), and the next day with a secondary antibody (IRDye 800CW, donkey anti-Goat) for 30 min at RT, and scanned at 680 and 800 nm using the Sapphire biomolecular imager (Azure Biosystems) to detect the Cy5 probes and cathepsin S. All images were analyzed with Image Studio software.

Cathepsin V [7] = biological target: T3, Cathepsin V; experiment: Second-order rate constants of inhibition (kobs/[I]), cathepsin V; assay type: biochemical; conditions: Figure 4D; Cy5- and BODIPY-labeled probes
Experimental: as §1
(§3) The second-order rate constants of inhibition (k obs/[I]) were determined for human recombinant cathepsins S, B, L, and V using their respective assay buffers. All measurements were performed under pseudo-first-order kinetic conditions, as previously described. Inhibitors or ABPs were serially diluted in assay buffer and transferred to a 96-well plate. Each well was supplemented with the fluorogenic substrate Cbz-Phe-Arg-AMC at a final concentration of 25 μM and preincubated for 15 min. In parallel, enzymes were preactivated in assay buffer for 15 min at room temperature. Following preincubation, the activated enzymes were added to the wells, and fluorescence was monitored immediately for 30 min. The k obs/[I] values (M^-1S^-1) were calculated from the progress curves and averaged from at least three independent experiments. Final inhibitor (or ABP) concentrations were maintained at a minimum of 5-fold excess relative to enzyme concentrations to ensure pseudo-first-order conditions. Results were analyzed in GraphPad Prism and are reported as mean ± standard deviation.

Cathepsin B [8] = biological target: T2, Cathepsin B; experiment: Second-order rate constants of inhibition (kobs/[I]), cathepsin B; assay type: biochemical; design: made in house; conditions: for kobs/[I] Cath B: Figure 4D, Cy5- and BODIPY-labeled probes
Experimental: as §1, §3

Cathepsin L [9] = biological target: T4, Cathepsin L; experiment: Second-order rate constants of inhibition (kobs/[I]), cathepsin L; assay type: biochemical; conditions: for kobs/[I] Cath L: Figure 4D, Cy5- and BODIPY-labeled probes
Experimental: as §1, §3

Cathepsin S [10] = biological target: T1, Cathepsin S; experiment: Second-order rate constants of inhibition (kobs/[I]), cathepsin S; assay type: biochemical; conditions: for kobs/[I] Cath S / Selectivity S to B / Selectivity S to V: Figure 4D; for kobs/[I] Cath S: Cy5- and BODIPY-labeled probes; for Selectivity S to B / Selectivity S to V: calculated from kobs/[I]; for Selectivity S to B: cathepsin S over cathepsin B; for Selectivity S to V: cathepsin S over cathepsin V
Experimental: as §1, §3

Ac-Phe(F5)-Thz-2Aoc-Gln-ACC [OG-200]
Km (Cathepsin S [1]): 1.63 µM
kcat Cathepsin S (Cathepsin S [1]): 0,15
Km (Cathepsin B [2]): 20.3 µM
kcat Cathepsin B (Cathepsin B [2]): 0,30
Km (Cathepsin V [3]): 4.31 µM
kcat Cathepsin V (Cathepsin V [3]): 0,20
Km (Cathepsin L [4]): 15.9 µM
kcat Cathepsin L (Cathepsin L [4]): 0,02

Ac-Phe(F5)-Thz-2Aoc-Glu(Me)-ACC [OG-201]
Km (Cathepsin S [1]): 3.04 µM
kcat Cathepsin S (Cathepsin S [1]): 0,65
Km (Cathepsin B [2]): 15.8 µM
kcat Cathepsin B (Cathepsin B [2]): 0,46
Km (Cathepsin V [3]): 11.2 µM
kcat Cathepsin V (Cathepsin V [3]): 0,29
Km (Cathepsin L [4]): 12.1 µM
kcat Cathepsin L (Cathepsin L [4]): 0,03

CC[C@H](C)[C@@H]([C@@H](CC(=O)N1CCC[C@H]1[C@H](OC)[C@@H](C)C(=O)N[C@H](C)[C@@H](O)c1ccccc1)OC)N(C)C(=O)[C@@H](NC(=O)[C@H](C(C)C)N(C)C(=O)OCc1ccc(NC(=O)[C@H](CCC(=O)OC)NC(=O)[C@H](CCCCNC(=O)OCc2ccccc2Cl)NC(=O)[C@H](CCCNC(N)=O)NC(=O)[C@H](Cc2c(F)c(F)c(F)c(F)c2F)NC(C)=O)cc1)C(C)C [compound 313, Ac-Phe(F5)-Cit-Lys(2ClZ)-Glu(Me)-PABC-MMAE] (Ac-[Phe(F5)][Cit]K(ClZ)E(OMe)[PABC][NMeV]V[Dil][Dolaproine]-X1; N-terminus and C-terminus assumed)
cleavage / free MMAE release by cathepsin S (Cathepsin S [5]): selectively and efficiently hydrolyzed only by cathepsin S

CC[C@H](C)[C@@H]([C@@H](CC(=O)N1CCC[C@H]1[C@H](OC)[C@@H](C)C(=O)N[C@H](C)[C@@H](O)c1ccccc1)OC)N(C)C(=O)[C@@H](NC(=O)[C@H](C(C)C)N(C)C(=O)OCc1ccc(NC(=O)[C@@H](CCC(=O)OC)NC(=O)[C@H](CCCCNC(=O)OCc2ccccc2Cl)NC(=O)[C@H](CCCNC(N)=O)NC(=O)[C@H](Cc2c(F)c(F)c(F)c(F)c2F)NC(C)=O)cc1)C(C)C [313D, Ac-Phe(F5)-Cit-Lys(2ClZ)-DGlu(Me)-PABC-MMAE] (Ac-[Phe(F5)][Cit]K(ClZ)[dE](OMe)[PABC][NMeV]V[Dil][Dolaproine]-X1; N-terminus and C-terminus assumed)
cleavage / free MMAE release by cathepsin S (Cathepsin S [5]): remained stable

Ac-Phe(F5)-Cit-Lys(2ClZ)-Glu(Me)-AOMK [JN-7]
effect of inhibitor pretreatment on probe binding [6]: did not influence probe binding

Ac-Met(O2)-Cit-NptGly-Glu(Me)-AOMK [JN-1]
effect of inhibitor pretreatment on probe binding [6]: did not influence probe binding

BODIPY-PEG(4)-Met(O2)-Cit-NptGly-Glu(Me)-AOMK [OG-236]
kobs/[I] Cath V (Cathepsin V [7]): 2,170 M^-1s^-1
kobs/[I] Cath B (Cathepsin B [8]): 3,800 M^-1s^-1
kobs/[I] Cath L (Cathepsin L [9]): < 500 M⁻¹ s⁻¹
kobs/[I] Cath S (Cathepsin S [10]): 78,300 M^-1s^-1
Selectivity S to B (Cathepsin S [10]): 21
Selectivity S to V (Cathepsin S [10]): 36

BODIPY-PEG(4)-Phe(F5)-Cit-Lys(2ClZ)-Glu(Me)-AOMK [OG-235]
kobs/[I] Cath V (Cathepsin V [7]): 1,640 M^-1s^-1
kobs/[I] Cath B (Cathepsin B [8]): 7,700 M^-1s^-1
kobs/[I] Cath L (Cathepsin L [9]): < 500 M⁻¹ s⁻¹
kobs/[I] Cath S (Cathepsin S [10]): 1,140,000 M^-1s^-1
Selectivity S to B (Cathepsin S [10]): 148
Selectivity S to V (Cathepsin S [10]): 695
higher potency than the unlabeled parent inhibitor (Cathepsin S [10]; cathepsin S kobs/[I], probe vs parent inhibitor): over 2 fold
selectivity for cathepsin S over cathepsin L (Cathepsin S [10]; kobs/[I] based): > 2000 fold
selectivity for cathepsin S over cathepsin V (Cathepsin S [10]; kobs/[I] based): > 500 fold

CC(C)C[C@H](NC(=O)[C@H]1O[C@@H]1C(=O)O)C(=O)NCCCCN=C(N)N [E-64, reference compound]
kinact/KI (Cathepsin B [8]; pH 5.5, read-out: kobs/[I] Cathepsin B): 81200 M⁻¹ s⁻¹
kinact/KI (Cathepsin L [9]; pH 5.5, read-out: kobs/[I] Cathepsin L): 65100 M⁻¹ s⁻¹
kinact/KI (Cathepsin S [10]; pH 5.5, Table S8, AOMK inhibitors, pseudo-first-order conditions): 132000 M⁻¹ s⁻¹
